Test results published in patent US12116388B2, “Amylin receptor agonists” (Novo Nordisk A/S, priority 2022, dated 2024).
Starred links: 1 amine or outer side, 2 acyl side, 3 side chain; linkers in the order of their positions; H or OH if unused. Residues, ends and D or L forms follow the SMILES beside them. *: point of attachment. C20 diacid = O=C(O)CCCCCCCCCCCCCCCCCCC(=O)*; C18 diacid = O=C(O)CCCCCCCCCCCCCCCCC(=O)*; γGlu = O=C(O)[C@H](CCC(=O)[*:2])N[*:1]

Legend:
[1] = molecular target: T1, human amylin receptor (hAMYR3) (Homo sapiens, UniProt O60896+P30988); assay: Human amylin receptor (hAMYR3) in vitro potency assay, CRE-luciferase reporter in BHK cells; type: cell-based; settings: BHK hAMYR3/CRE-Luc cells, 3 hours incubation, assay buffer with 1% ovalbumin
T1 construct: host or cells: BHK (Baby Hamster Kidney), Hollex-1 cell line further transfected with RAMP3
T1 sequence (O60896 24-148, one chain of several): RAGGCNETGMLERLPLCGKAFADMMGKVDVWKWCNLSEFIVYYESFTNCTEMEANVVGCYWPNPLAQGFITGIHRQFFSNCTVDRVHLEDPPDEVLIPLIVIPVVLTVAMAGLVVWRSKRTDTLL
From the text: (§1) Activation of hAMYR3 leads to increased cellular concentrations of cAMP. Consequently, transcription is activated by promotors containing multiple copies of the CAMP response element (CRE). It is thus possible to measure hAMYR3 activity using a CRE-luciferase reporter gene introduced into Baby Hamster Kidney (BHK) cells co-expressing the hAMYR3.
A BHK cell line was stably transfected with the human calcitonin receptor (a) and a CRE-responsive luciferase (CRE-Luc) reporter gene according to methods known to the person skilled in the art (Hollex-1 cell line, obtained from Zymogenetics described in U.S. Pat. No. 5,622,839). The cell line was further transfected with human receptor modifying protein 3 (RAMP3) using standard methods. This turns the human calcitonin receptor into a human amylin-3(a) receptor.
(§2) Cells stocks were prepared by culturing of the stably transfected BHK hAMYR3/CRE-Luc cell line in growth medium consisting of DMEM (Gibco, 31966-021) supplemented with 10% FBS (Gibco, 16140-071), 1% Pen/Strep (Gibco, 15140-122), 0.5 mg/mL Geneticin (Gibco, 10131-027), 0.4 mg/mL Hygromycin (Invitrogen, 10687010) and 250 nM Methotrexate (Sigma, A6770). Cells at approximately 80-90% confluence were washed once with PBS (Gibco 14190-094) and loosened from the cell flasks with Versene (Gibco, 15040-033) or TrypLE™ (Gibco, 12605-010). After centrifugation, the cell pellet was dissolved and diluted to approximately 2.5×10E6 cells/mL in Recovery™ Cell Culture Freezing Medium (Gibco, 12648-010). Cells were aliquoted and stored at −180° C. until use.
(§3) The assay buffer consisted of DMEM without phenol red (Gibco, 11880-028) supplemented with 1× GlutaMAX (Gibco, 35050-038), 10 mM HEPES (Gibco, 15630-056) and 1% (w/v) ovalbumin (Sigma, A5503).
(§4) To perform the assay, BHK hAMYR3/CRE-Luc cells were thawed, washed once in PBS and seeded in 40 μL growth medium in a white 384-well culture plate (PerkinElmer, 6007688) at a cell density of 4.000 cells/well on the day before the experiment. The plate was incubated over night at 37° C. in 5% CO2. On the day of the assay, cells were washed once in assay buffer. Serial dilutions (7-fold dilutions, 7 concentrations Pr. compound and one well containing only assay buffer) of comparator compounds and amylin analogues were performed in assay buffer often starting from approximately 10 nM in 96-well plates and 30 μL of each concentration added to the 384-well assay plate with cells. The assay plate was incubated for 3 hours at 37° C. in 5% CO2 after which 30 μL SteadyLite Plus (PerkinElmer, 6066759) was added to each well. The assay plate was sealed, incubated at room temperature with gentle shaking for 5 minutes followed by 30 minutes incubation without shaking while protected from light. Luminescence was detected on a luminescence plate reader e.g. a Synergy 2 (BioTek).

[2] = molecular target: T2, human calcitonin receptor (hCTR) (Homo sapiens, UniProt P30988); assay: Human calcitonin receptor (hCTR) in vitro potency assay, CRE-luciferase reporter in BHK cells; type: cell-based; settings: BHK hCTR/CRE-Luc cells, 3 hours incubation, assay buffer with 1% ovalbumin; read-out: hCalcR potency, EC50
T2 construct: host or cells: BHK (Baby Hamster Kidney), Hollex-1 cell line
T2 sequence (P30988 25-474): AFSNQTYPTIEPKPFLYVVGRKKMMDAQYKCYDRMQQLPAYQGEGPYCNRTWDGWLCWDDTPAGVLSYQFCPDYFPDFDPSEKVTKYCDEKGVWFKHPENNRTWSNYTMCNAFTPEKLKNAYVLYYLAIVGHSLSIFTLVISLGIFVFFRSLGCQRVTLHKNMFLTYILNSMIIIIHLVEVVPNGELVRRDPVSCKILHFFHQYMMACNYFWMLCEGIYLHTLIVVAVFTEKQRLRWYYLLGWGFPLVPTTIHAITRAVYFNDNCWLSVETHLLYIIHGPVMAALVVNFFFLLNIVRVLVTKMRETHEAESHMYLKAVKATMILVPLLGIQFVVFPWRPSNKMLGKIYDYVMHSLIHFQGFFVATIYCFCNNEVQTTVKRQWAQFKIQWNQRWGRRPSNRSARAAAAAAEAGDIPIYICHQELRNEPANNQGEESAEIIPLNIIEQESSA
From the text: as §1, with “hCTR” for “hAMYR3”, “CAMP.” for “cAMP.”, “hCTR.” for “hAMYR3.”
A BHK cell line was stably transfected with the human calcitonin receptor (a) and a CRE-responsive luciferase (CRE-Luc) reporter gene according to methods known to the person skilled in the art (Hollex-1 cell line, obtained from Zymogenetics described in U.S. Pat. No. 5,622,839).
as §2, with “hCTR/CRE-Luc” for “hAMYR3/CRE-Luc”, “10131-027)” for “10131-027), 0.4 mg/mL Hygromycin (Invitrogen, 10687010)”
as §3
as §4, with “hCTR/CRE-Luc” for “hAMYR3/CRE-Luc”

Row | Compound | EC50 [1] | EC50 [2]
1 | CC[C@H](C)[C@H](NC(=O)[C@@H]1CCCN1C(=O)CNC(=O)[C@H](Cc1ccccc1)NC(=O)[C@H](CC(N)=O)NC(=O)[C@H](CC(N)=O)NC(=O)[C@H](CO)NC(=O)[C@H](CO)NC(=O)[C@H](Cc1c[nH]cn1)NC(=O)[C@H](CCCNC(=N)N)NC(=O)[C@H](CC(C)C)NC(=O)[C@H](Cc1ccccc1)NC(=O)[C@H](CCC(=O)O)NC(=O)[C@H](C)NC(=O)[C@H](CC(C)C)NC(=O)[C@H](CCCNC(=N)N)NC(=O)[C@H](CCC(N)=O)NC(=O)[C@@H](NC(=O)[C@H](C)NC(=O)[C@@H]1CSSC[C@H](NC(=O)[C@H](CCCCN)NC(=O)CC[C@H](NC(=O)CCCCCCCCCCCCCCCCCCC(=O)O)C(=O)O)C(=O)N[C@@H](CC(N)=O)C(=O)N[C@@H]([C@@H](C)O)C(=O)N[C@@H](C)C(=O)N[C@@H]([C@@H](C)O)C(=O)N1)[C@@H](C)O)C(=O)N[C@@H](CC(C)C)C(=O)N1CCC[C@H]1C(=O)N1CCC[C@H]1C(=O)N[C@H](C(=O)N[C@@H](CC(N)=O)C(=O)N[C@H](C(=O)NCC(=O)N[C@@H](CO)C(=O)N[C@@H](CC(N)=O)C(=O)N[C@H](C(=O)N1CCC[C@H]1C(N)=O)[C@@H](C)O)C(C)C)[C@@H](C)O [cagrilintide, reference compound] | 1.58 pM | 2.53 pM
2 | CC[C@H](C)[C@H](NC(=O)[C@@H]1CCCN1C(=O)CNC(=O)[C@H](Cc1ccccc1)NC(=O)[C@H](Cc1c[nH]cn1)NC(=O)[C@H](Cc1c[nH]cn1)NC(=O)[C@H](CC(C)C)NC(=O)[C@H](Cc1ccccc1)NC(=O)[C@H](CCC(=O)O)NC(=O)[C@H](C)NC(=O)[C@H](CC(C)C)NC(=O)[C@H](CCCNC(=N)N)NC(=O)[C@H](C)NC(=O)[C@@H](NC(=O)[C@H](CCC(N)=O)NC(=O)[C@H](C)NC(=O)[C@@H](NC(=O)[C@H](CO)NC(=O)[C@H](CC(C)C)NC(=O)[C@H](Cc1c[nH]cn1)NC(=O)[C@H](CO)NC(=O)[C@H](C)NC(=O)CC[C@H](NC(=O)CCCCCCCCCCCCCCCCCCC(=O)O)C(=O)O)[C@@H](C)O)[C@@H](C)O)C(=O)N[C@@H](CC(C)C)C(=O)N1CCC[C@H]1C(=O)N1CCC[C@H]1C(=O)N[C@H](C(=O)N[C@@H](CC(=O)O)C(=O)N[C@H](C(=O)NCC(=O)N[C@@H](CO)C(=O)N[C@@H](CCC(=O)O)C(=O)N[C@H](C(=O)N1CCC[C@H]1C(N)=O)[C@@H](C)O)C(C)C)[C@@H](C)O [Compound 5, N^1-[(4S)-4-carboxy-4-(19-carboxynonadecanoylamino)butanoyl]-[Ala1,Ser2,His3,Leu4,Ser5,Ala7,Gln8,Ala10,Glu14,His17,Pro25,Pro28,Pro29,Asp31,Glu35,Pro37],des-(19-22)-human amylin] ({C20 diacid-γGlu}-ASHLSTAQTARLAEFLHHFGPILPPTDVGSETP-NH2) | 1.09 pM | 1.49 pM
3 | CC[C@H](C)[C@H](NC(=O)[C@@H]1CCCN1C(=O)CNC(=O)[C@H](Cc1ccccc1)NC(=O)[C@H](Cc1c[nH]cn1)NC(=O)[C@H](Cc1c[nH]cn1)NC(=O)[C@H](CC(C)C)NC(=O)[C@H](Cc1ccccc1)NC(=O)[C@H](CCC(=O)O)NC(=O)[C@H](C)NC(=O)[C@H](CC(C)C)NC(=O)[C@H](CCCNC(=N)N)NC(=O)[C@H](C)NC(=O)[C@@H](NC(=O)[C@H](CCC(N)=O)NC(=O)[C@H](C)NC(=O)[C@@H](NC(=O)[C@H](CO)NC(=O)[C@H](CC(C)C)NC(=O)[C@H](Cc1c[nH]cn1)NC(=O)[C@H](CO)NC(=O)[C@H](C)NC(=O)CC[C@H](NC(=O)CCCCCCCCCCCCCCCCC(=O)O)C(=O)O)[C@@H](C)O)[C@@H](C)O)C(=O)N[C@@H](CC(C)C)C(=O)N1CCC[C@H]1C(=O)N1CCC[C@H]1C(=O)N[C@H](C(=O)N[C@@H](CC(=O)O)C(=O)N[C@H](C(=O)NCC(=O)N[C@@H](CO)C(=O)N[C@@H](CCC(=O)O)C(=O)N[C@H](C(=O)N[C@@H](Cc1ccc(O)cc1)C(N)=O)[C@@H](C)O)C(C)C)[C@@H](C)O [Compound 42, N^1-[(4S)-4-carboxy-4-(17-carboxyheptadecanoylamino)butanoyl]-[Ala1,Ser2,His3,Leu4,Ser5,Ala7,Gln8,Ala10,Glu14,His17,Pro25,Pro28,Pro29,Asp31,Glu35],des-(19-22)-human amylin] ({C18 diacid-γGlu}-ASHLSTAQTARLAEFLHHFGPILPPTDVGSETY-NH2) | 2.11 pM | 2.78 pM
4 | CC[C@H](C)[C@H](NC(=O)[C@@H]1CCCN1C(=O)CNC(=O)[C@H](Cc1ccccc1)NC(=O)[C@H](Cc1c[nH]cn1)NC(=O)[C@H](Cc1c[nH]cn1)NC(=O)[C@H](CC(C)C)NC(=O)[C@H](Cc1ccccc1)NC(=O)[C@H](CCC(=O)O)NC(=O)[C@H](C)NC(=O)[C@H](CC(C)C)NC(=O)[C@H](CCCNC(=N)N)NC(=O)[C@H](CCC(N)=O)NC(=O)[C@@H](NC(=O)[C@H](CCC(N)=O)NC(=O)[C@H](C)NC(=O)[C@@H](NC(=O)[C@H](CO)NC(=O)[C@H](CC(C)C)NC(=O)[C@H](Cc1c[nH]cn1)NC(=O)[C@H](CO)NC(=O)[C@H](C)NC(=O)CC[C@H](NC(=O)CC[C@H](NC(=O)CCCCCCCCCCCCCCCCC(=O)O)C(=O)O)C(=O)O)[C@@H](C)O)[C@@H](C)O)C(=O)N[C@@H](CC(C)C)C(=O)N1CCC[C@H]1C(=O)N1CCC[C@H]1C(=O)N[C@H](C(=O)N[C@@H](CC(=O)O)C(=O)N[C@H](C(=O)NCC(=O)N[C@@H](CO)C(=O)N[C@@H](CCC(=O)O)C(=O)N[C@H](C(=O)N[C@@H](Cc1ccc(O)cc1)C(N)=O)[C@@H](C)O)C(C)C)[C@@H](C)O [Compound 32, N^1-[(4S)-4-carboxy-4-[[(4S)-4-carboxy-4-(17-carboxyheptadecanoylamino)butanoyl]amino]butanoyl]-[Ala1,Ser2,His3,Leu4,Ser5,Ala7,Gln8,Glu14,His17,Pro25,Pro28,Pro29,Asp31,Glu35],des-(19-22)-human amylin] ({C18 diacid-γGlu-γGlu}-ASHLSTAQTQRLAEFLHHFGPILPPTDVGSETY-NH2) | 5.71 pM | 15.7 pM
